{
  "source": "patent US20170209579A1",
  "about": "“NON-INVASIVE RADIOFREQUENCY FIELD TREATMENT FOR CANCER THERAPY” (Baylor College of Medicine, priority 2014, published 2017)",
  "key": {"[1]": {"system": "γ-H2AX in Hep3B xenografts", "assay": "γ-H2AX fluorescence immunohistochemistry in Hep3B xenografts", "assay_type": "in vivo, mouse", "method": "(30A) Sites of DNA damage were evaluated using fluorescence immunohistochemistry for γ-H2AX. Also note the increased nuclear fragmentation in the DAPI channel for combination therapy groups.\nTumor tissues harvested at the end of the experiment were fixed in 10% buffered formalin (pH 7.0) for 24 hours and subsequently stored in 70% ethanol (v/v) before embedding them in paraffin. For immunohistochemistry, 5-micron sections were placed on a glass slide and tissue sections were de-paraffinized and rehydrated. Antigen retrieval was performed in citrate buffer at pH 6.0. The slides were placed in Tris-buffer (pH 8.0) before further processing.\nFor fluorescence immunohistochemistry, a protocol similar to that used for immunocytochemistry (described above) was used with some modifications described here. Tris-buffer was removed and tumor section was encircled using a pap pen (Electron microscopy sciences, Hatfield, Pa.). For blocking, 5% (w/v) BSA and 3% (v/v) NGS was used instead of 3% BSA and 1% NGS, respectively. Imaging was performed as for immunocytochemistry.\nDevelopment of mouse models and details of RF exposure and thermography are discussed in FIGS. 25 and 26. Mice bearing Hep3B orthotopic tumors were randomized to one of five groups: untreated, RF exposure alone, gemcitabine alone, gemcitabine followed 24 hours later by RF exposure, or RF exposure immediately followed by gemcitabine. The treatments were administered twice a week for three weeks for a total of six treatments. The gemcitabine dose administered was […] or 150 mg/kg/week. This is approximately half the dose used in humans (1000 mg/m2/week dose in a 1.7 m human=˜300 mg/kg/week dose in a mouse). Twenty-four hours after the last treatment, mice were killed and tumors were harvested, weighed, and fixed in formalin for later analysis (FIG. 19A). […]"}, "[2]": {"system": "Mre11", "assay": "Colocalization of Mre11 with γ-H2AX foci at gemcitabine-stalled replication forks", "assay_type": "cell-based, human", "conditions": "Hep3B", "text": "FIGS. 15A-15D provide inhibition of Mre11 and Rad51 recruitment at gemcitabine-stalled replication forks by hyperthermia. (15A) Hep3B cells were exposed to hyperthermia and/or gemcitabine. (15B) and (15C) Mre11 and Rad51 were recruited at gemcitabine-stalled replication forks. […] Scale bar=10 μm. (15D) Quantification of data from colocalization experiments. Data are mean Pearson correlation (a.u.) and error bars represent the SD from three independent experiments with 10 replicates each (*P<0.05, **P<0.01). Gem=Gemcitabine; HT=Hyperthermia; N/A=not applicable, i.e., in hyperthermia treated cells BrdU staining is not detected as distinct foci and therefore correlation could not be quantified; ns=not significant, by the Student unpaired two-sided t test in comparison with gemcitabine alone group. Also, see FIGS. 22-24. […]\nFor immunocytochemistry assay, an indirect immunofluorescence approach was used. […] Cells from an exponentially growing culture were counted and approximately 50,000 cells were seeded in each well of a 12-well plate. […]\nThe slides were sealed with a conventional nail polish hardener and stored at 4° C. until imaging. […] Exposure settings were set to maximize dynamic range initially and then kept constant across multiple samples to allow quantitative comparisons. […]"}},
  "data": [
    {"smiles": "Nc1ccn([C@@H]2O[C@H](CO)[C@@H](O)C2(F)F)c(=O)n1", "note": "[gemcitabine, 2′,2′-difluoro 2′-deoxycytidine]", "values": [
      {"measurement": "Mean γ-H2AX positive pixels/HPF [±SD]", "setting": "[1]; RF then gemcitabine", "value": "45430±18980", "unit": "pixels/HPF"},
      {"measurement": "Mean γ-H2AX positive pixels/HPF [±SD]", "setting": "[1]; gemcitabine alone", "value": "27258±8022", "unit": "pixels/HPF"},
      {"measurement": "Mean γ-H2AX positive pixels/HPF [±SD]", "setting": "[1]; gemcitabine then RF", "value": "46968±10284", "unit": "pixels/HPF"},
      {"measurement": "mean Pearson correlation, Mre11 with γ-H2AX foci", "setting": "[2]; gemcitabine alone (10 μg/ml)", "value": 0.37},
      {"measurement": "mean Pearson correlation, Mre11 with γ-H2AX foci", "setting": "[2]; hyperthermia 42.5° C. 75 minutes then gemcitabine 10 μg/ml", "value": 0.23}
    ]}
  ]
}
